Source: patent US20080305157A1, “Encapsulation and separation of charged organic solutes inside catanionic vesicles” (University of Maryland Office of Technology …, priority 2007, published 2008)
“And” between values parts separate entries of the source, which are not always exact repeats. Identical values can stand only once. Counter-ions that a name gives are not always drawn.

How the values were obtained:
[1] = Dye adsorption: dye added to preformed vesicles, then SEC; assay type: physicochemical
[2] = Separation of oppositely charged solute mixtures with catanionic vesicles by SEC; assay type: physicochemical; conditions: for Dye carried through SEC column within the V^+ vesicle band / Dye in the V^− vesicle band emerging from SEC column: equimolar CF and R6G, total dye 0.5 mM; for Dye carried through SEC column within the V^+ vesicle band: V^+ vesicles; for Dye in the V^− vesicle band emerging from SEC column: V^− vesicles; for Separation of LY and Dox by catanionic vesicles in SEC: total compound concentration 1 mM
Procedure: Catanionic vesicles were prepared with equimolar mixtures of two solutes, the cationic organic dye rhodamine 6G (R6G) and the anionic dye carboxyfluorescein (CF). The total solute concentration was maintained at either 0.5 or 1.0 mM, and experiments were done with both positively charged vesicles (V^+) (excess of cationic CTAT) and negatively charged vesicles (V^−) (excess of anionic SDBS) formed from cetyltrimethylammonium tosylate (CTAT) and sodium dodecylbenzenesulfonate (SDBS).
Experiments with these solute mixtures were performed and analyzed by performing size exclusion chromatography on the sample and measuring the dye concentration of each fraction to obtain an apparent encapsulation value, ε, for each dye (see below). The dye concentration in each fraction was determined by UV-vis spectroscopy. To account for the overlapping of the dye spectra, we subtracted a scaled spectrum of pure R6G from the total spectrum in order to find the peak absorbance of CF.

[3] = Long-term CF release from vesicles by self-quenching fluorescence, R(t); assay type: physicochemical
Procedure: The self-quenching behavior of carboxyfluorescein (CF) was used to monitor dye efflux from vesicles. CF is a widely used probe for vesicle encapsulation due to its ability to undergo efficient self-quenching of fluorescence at millimolar concentrations. For example, when 60 mM CF is entrapped in vesicles, its fluorescence intensity is reduced by 60-80%, but as the dye is released from the vesicle, and thus diluted by the surrounding buffer, its fluorescence intensity increases.
Samples were checked on a specific day by placing a fixed aliquot (1.5 mL) into a 1 cm cuvette and monitoring its emission at 520 nm while exciting at 490 nm using a Spex Fluorolog-3 spectrometer. The intensity was monitored for several minutes to establish the baseline fluorescence intensity, which contains a contribution from both free and encapsulated dyes. After the baseline was established, 100 uL of 10% (w/w) aqueous Triton X-100 was added to disrupt the vesicles. Vesicle disruption results in the release of all dye molecules into solution and a concomitant increase in fluorescence. For these experiments, a substantial volume of sample was prepared on the first day and run on the SEC column to remove free dye. […] The traces show the emission intensity before and after the addition of Triton X-100, a nonionic detergent that disrupts both lipid and surfactant vesicles. […] As expected, the largest jump occurs for the freshly prepared vesicle solution where all the dye is encapsulated in the vesicles. We compare the magnitude of the jump on Day x with the highest jump (Day 0) and thereby obtain the fraction of the dye released on day x, R(t=x), the calculation of which is described below. […]
To monitor long-term leakage rates, the fraction of dye released as a function of time, R(t), was calculated for a given day. This quantity measures the fraction of encapsulation on Day x relative to the initial value on Day 0:
where F(initial) and F(final) are the fluorescence intensities before and after adding the Triton X-100. […]

[4] = Apparent encapsulation efficiency (ε) of solutes in vesicles by SEC and UV-vis; assay type: physicochemical; conditions: 1 wt% surfactant, 1 mM solute; for ε (Apparent Encapsulation Efficiency) SDBS-Rich V^−: V^− vesicles 3:7 w/w CTAT:SDBS; for ε (Apparent Encapsulation Efficiency) CTAT-Rich V^+: V^+ vesicles 7:3 w/w CTAT:SDBS
Procedure: For the determination of encapsulation efficiencies, vesicles were prepared using aqueous solutions containing 1.0 mM carboxyfluorescein (CF) dye. The formation of CTAT-rich vesicles (7:3 CTAT to SDBS w/w) appeared to be inhibited at CF concentrations of 5 mM or greater. High concentrations of CF (and similarly, other solutes) tended to disrupt the vesicles and lead to precipitation over time. Vesicle stability appeared to be unaffected when the solute concentration is kept below 5 mM, and at these concentrations solute encapsulation does occur. For CF, a pH ˜9 was required in order to fully dissolve the dye, and the stock solutions were adjusted accordingly. The CF/CTAT/SDBS solutions were stirred for 15-30 min and the resulting vesicle solutions were allowed to equilibrate in the dark at room temperature for at least 48 h. Dynamic light scattering (DLS) was then used to confirm vesicle formation. SDBS-rich vesicles (e.g., 3:7 CTAT to SDBS w/w) could be prepared with higher CF concentrations (up to ca. 100 mM); however CF encapsulation in these vesicles was reduced relative to that of CTAT-rich vesicles and in many cases CF encapsulation by SDBS-rich vesicles (i.e., the formation of distinct bands in the chromatography column, see below) was not achieved.
(§1) The apparent encapsulation efficiencies of the two vesicle preparations, V^+ and V^−, were also evaluated for the other solute molecules shown in FIG. 9. A solute concentration of 1 mM was used in all cases. Lucifer yellow (LY) is dianionic in water and Sulforhodamine 101 (SR101) is monanionic. […] Doxorubicin hydrochloride (Dox) is a cationic drug with a pKa of ˜7.619 that has been used to treat a variety of cancers. […] In each case, vesicles were prepared using aqueous solutions of the solute at a concentration of 1 mM. The solute/CTAT/SDBS mixtures were stirred for 30-60 min, or overnight, and the resulting vesicle solutions were allowed to equilibrate in the dark at room temperature for at least 48 h. Thereafter, the samples were passed through a 25 mm syringe filter (0.45 μm mesh) to remove any impurities. Dynamic light scattering was conducted to confirm vesicle formation and to measure the average vesicle size.
To measure the apparent encapsulation efficiency ε, size exclusion chromatography (SEC) was used to separate the free solute from that encapsulated by the vesicles. A 2×25 cm column packed with Sephadex G50 resin (medium mesh, Amersham Biosciences) or a 1.3 cm×21 cm SEC column packed with Sephadex G50 resin (medium mesh, from Amersham Biosciences) was used. An aliquot of the vesicle-solute sample was run through the SEC column.
During elution, vesicle solutions divided into bands that were visible with the naked eye or by UV lamp, e.g., in the case of CF dye containing vesicles, two clear bands, the leading band containing the dye-bearing vesicles and the second band containing the free dye. During elution, fractions were collected and analyzed, and a series of such fractions for a typical experiment is shown in FIG. 6 (the solute in FIG. 6 is CF). The band containing the vesicles was collected for further studies of vesicle leakage, as described below. Dynamic light scattering was used to determine which of the eluted fractions contained vesicles, and the vesicles were consistently found to elute at 5.5 ml, total elution volume.
The amount of solute in each fraction was determined using UV-vis spectroscopy (Hitachi U-3010 Spectrometer). The encapsulation efficiency (ε) value is defined as the amount of encapsulated solute relative to the total initial amount of solute:
V designates volume, A designates absorbance, i denotes initial values taken from the original preparation, and f denotes values taken from the fractions eluted from the SEC column shown by dynamic light scattering to contain vesicles. Thus, the value of ε gives percentage of dye that is captured by the vesicles during their preparation. […]

[5] = Vesicle radius by dynamic light scattering (DLS); assay type: physicochemical; conditions: for Vesicle Radius after SEC by DLS CTAT-Rich V^+: V^+ vesicles with 1 mM solute; for Vesicle Radius after SEC by DLS SDBS-Rich V^−: V^− vesicles with 1 mM solute
Procedure: Vesicle sizes in solution were monitored using dynamic light scattering (DLS) on a Photocor-FC instrument. The light source was a 5 mW laser at 633 nm and the scattering angle was 90°. A logarithmic correlator was used to obtain the autocorrelation function, which was analyzed by the method of cumulants to yield a diffusion coefficient. The apparent hydrodynamic size of the vesicles was obtained from the diffusion coefficient through the Stokes-Einstein relationship. The intensity (total counts) of the signal was also recorded for each sample.
as §1
A low solute concentration, e.g., 1 mM, was used in the experiments to ensure the stability of our vesicle formulations. […] Even at a concentration of 1 mM, some solutes may have a large effect on vesicle morphology. To study these aspects in some detail, dynamic light scattering (DLS) and small angle neutron scattering (SANS) were used. DLS was performed on purified vesicles obtained from the SEC column (after removing all the free solute); the sizes of solute-containing vesicles were compared with the sizes of neat vesicles (no solute). DLS gave radii of 74 nm for neat V^+ vesicles and 70 nm for neat V^− vesicles. Passing these neat vesicles through an SEC column changed their sizes slightly and the new radii were 81 nm for V^+ and 98 nm for V^− vesicles. […] However, while 1 mM of the anionic solute Lucifer yellow (LY) had no effect on V^− vesicles, it induced a 2.5 fold increase in the radii of V^+ vesicles.

[6] = assay type: physicochemical
Procedure: A more general procedure based on SEC that can be applied to a wide range of solutes, including non-self-quenching and non-fluorescent ones was also used. The initial vesicle-solute mixture was purified using SEC (as described above) to remove the free, unencapsulated solute. The sample was then checked for release of solute from the vesicles over the course of several weeks. For this purpose, small-scale separations using quick-spin columns pre-packed with Sephadex G50 (fine) were performed (column from Roche, additional beads for repacking the columns from Sigma). On a specific day, a 100 μL aliquot was run through a quick-spin column by centrifugation (3000 rpm, 15 s), and the eluted fraction was evaluated using UV-vis spectroscopy. Any solute that had been released from the vesicles was retained by the quick-spin column. Therefore, the amount of solute eluted by the column corresponded to the solute still encapsulated by the vesicles. The UV-vis absorption value for the eluted sample was divided by the corresponding value obtained on day zero (immediately after SEC) to yield a fraction of solute that remains encapsulated in the vesicles. This method directly yielded the apparent encapsulation, ε, as a function of time. […]

[7] = Apparent encapsulation efficiency (ε) of solutes in vesicles by SEC and UV-vis; assay type: physicochemical; conditions: inner water pool only
[8] = cited from earlier work

Electrostatic adsorption contribution to overall apparent encapsulation efficiency ε ([1]; CF added to pre-formed V^+ vesicles vs vesicles formed with CF) | Dye carried through SEC column within the V^+ vesicle band [2] | Dye in the V^− vesicle band emerging from SEC column [2] | Release rate slower than from EYPC vesicles ([3]; CF from V^+ vesicles vs EYPC vesicles) | Period over which CF dye is released ([3]; EYPC vesicles) | Release of CF ([3]; V^+ vesicles, after 27 days) | ε (Apparent Encapsulation Efficiency) SDBS-Rich V^− [4] | Effect of solute on V^+ vesicle radii ([5]; 1 mM solute) | Effect of solute on V^− vesicle radii ([5]; 1 mM solute) | Vesicle Radius after SEC by DLS CTAT-Rich V^+ [5] [nm] | Vesicle Radius after SEC by DLS SDBS-Rich V^− [5] [nm] | Half life in the vesicles [6] [days] | Retention of solute relative to liposomes ([6]; catanionic vesicles vs EYPC liposomes) | Actual encapsulation efficiency for dye in the V^+ water pool [7] | Separation of LY and Dox by catanionic vesicles in SEC [2] | ε (Apparent Encapsulation Efficiency) CTAT-Rich V^+ [4] [%] | ε (Apparent Encapsulation Efficiency) SDBS-Rich V^− ([4]; hydrochloride) [%] | ε when dye added to pre-made vesicles, as share of Table 1 value ([1]; R6G added to pre-made V^− vesicles) | Increase in the radii of V^+ vesicles ([5]; 1 mM solute, vs neat vesicles) [fold] | Compound | pKa [8]
 | no detectable | 88% |  |  |  | 72% and 72 ± 3% |  |  | 156 ± 24 | 109 ± 16 |  |  |  |  | 0.07 ± 0.1 |  | ca. 85% |  | CCN=c1cc2oc3cc(NCC)c(C)cc3c(-c3ccccc3C(=O)OCC)c-2cc1C.Cl [R6G, rhodamine 6G] | 
 |  |  |  |  |  | 8.2% |  |  | 122 ± 38 | 84 ± 7 |  |  |  |  | 32.8 |  |  |  | O=S(=O)([O-])c1cc(S(=O)(=O)O)ccc1C1=c2cc3c4c(c2Oc2c1cc1c5c2CCCN5CCC1)CCC[N+]=4CCC3 [SR 101, sulforhodamine 101] | 
 |  |  |  |  |  | 4% |  | no effect | 208 ± 18 | 96 ± 3 |  |  |  | Very efficient separation | 40 ± 20 |  |  | 2.5 | Lucifer yellow [LY] | 

Continued, compound first:

Compound | Electrostatic adsorption contribution to overall apparent encapsulation efficiency ε ([1]; CF added to pre-formed V^+ vesicles vs vesicles formed with CF) | Dye carried through SEC column within the V^+ vesicle band [2] | Dye in the V^− vesicle band emerging from SEC column [2] | Release rate slower than from EYPC vesicles ([3]; CF from V^+ vesicles vs EYPC vesicles) | Period over which CF dye is released ([3]; EYPC vesicles) | Release of CF ([3]; V^+ vesicles, after 27 days) | ε (Apparent Encapsulation Efficiency) SDBS-Rich V^− [4] | Effect of solute on V^+ vesicle radii ([5]; 1 mM solute) | Effect of solute on V^− vesicle radii ([5]; 1 mM solute) | Vesicle Radius after SEC by DLS CTAT-Rich V^+ [5] [nm] | Vesicle Radius after SEC by DLS SDBS-Rich V^− [5] [nm] | Half life in the vesicles [6] [days] | Retention of solute relative to liposomes ([6]; catanionic vesicles vs EYPC liposomes) | Actual encapsulation efficiency for dye in the V^+ water pool [7] | Separation of LY and Dox by catanionic vesicles in SEC [2] | ε (Apparent Encapsulation Efficiency) CTAT-Rich V^+ [4] [%] | ε (Apparent Encapsulation Efficiency) SDBS-Rich V^− ([4]; hydrochloride) [%] | ε when dye added to pre-made vesicles, as share of Table 1 value ([1]; R6G added to pre-made V^− vesicles) | Increase in the radii of V^+ vesicles ([5]; 1 mM solute, vs neat vesicles) [fold] | pKa [8]
5(6)-carboxyfluorescein [CF] | about 75% | 31% | negligible | at least 40 times | about 5 days | approximately 20% | 1.0 ± 0.4% | essentially unchanged | essentially unchanged | 87 ± 5 | 91 ± 8 | 114 | 40-60 times | ca. 5% |  |  |  |  |  | 
COc1cccc2c1C(=O)c1c(O)c3c(c(O)c1C2=O)C[C@@](O)(C(=O)CO)C[C@@H]3O[C@H]1C[C@H](N)[C@H](O)[C@H](C)O1 [Dox, doxorubicin hydrochloride] |  |  |  |  |  |  |  |  |  | 143 ± 32 | 93 ± 4 |  |  |  | Very efficient separation | 0 | 55 |  |  | ~7.619
